This passage reports MIC and Minimal inhibitory concentration results from patent US9273095B2, “Antibiotic peptide and preparation method therefor and application therefor” (priority 2011, dated 2016).

Format in all cases: cell-based
The test system of assay [1] is Typhoid bacillus H901. Description: microbe, parasite or virus in culture. In outline:
(§1)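 Testing covers laboratory standard strains and clinical isolates, resistant bacteria among them, with ATCC quality-control strains. Each is multipoint-inoculated at 10^4CFU/point onto MH agar holding two-fold drug dilutions (0.03–128 μg/ml) and incubated 18 hours at 35° C.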

The subject of assay [2] is Staphylococcus epidermidis. The experiment in a line: microbe, parasite or virus in culture. In outline: as §1
In assay [3] the test system is Shigella. Description: microbe, parasite or virus in culture. In outline: as §1
The subject of assay [4] is Enterobacter cloacae. The experiment in a line: microbe, parasite or virus in culture. In outline: as §1
The subject of assay [5] is Serratia marcescens. The experiment in a line: microbe, parasite or virus in culture. Put shortly: as §1
For assay [6], the system named is Enterobacter aerogenes. The experiment in a line: microbe, parasite or virus in culture. In outline:
as §1

Assay [7] has as its system Salmonella typhimurium. The experiment in a line: microbe, parasite or virus in culture. Conditions: murium. In outline:
as §1

Assay [8] has as its system Staphylococcus aureus. Description: microbe, parasite or virus in culture. Put shortly:
as §1

Assay [9] deals with Feilaoti citrobacter. Description: microbe, parasite or virus in culture. Put shortly: as §1
In assay [10] the test system is Proteus vulgaris. Description: microbe, parasite or virus in culture. In outline:
as §1

Assay [11] deals with Acinetobacter calcoaceticus. Description: microbe, parasite or virus in culture. Put shortly: as §1
Assay [12] has as its system Shigella sonnei. Description: microbe, parasite or virus in culture. Conditions: Shigella sonnei strains 51592. In outline: as §1
In assay [13] the test system is candida krusei. The experiment in a line: microbe, parasite or virus in culture. The text has this: • (1) Test strains: monilia albicans (candida albicans), candida glabrata, candida krusei, candida tropicalis, aspergillus fumigatus and flavous. (2) Quality control strains: candida krusei JLC30366 (ATCC6258). Antimicrobial peptides PL-13 (SEQ ID NO: 1) under test are supplied by Jiangsu ProteLight Pharmaceutical & Biotechnology Co., LTD. […] (1) The bacterial strains which preserved on PDA slant are respectively inoculated onto PDA plate and slant medium. Activation of bacterial strains is conducted at a humidity level of 60% and 25° C. (for aspergillus) or 37° C. (for candida). (2) 0.9% stroke-physiological saline solution comprising 0.5% Tween-80 is used to prepare bacterial suspension for experiment. Hemocytometer is utilized to adjust concentration of the bacterial suspension to 1-3×10^6 CFU/ml (0.5 McFarland units) to make stock solution in reserve at -20° C. During the sensitivity test, the RPMI-1640 liquid medium is diluted 1000 times to 1-3×10^3 CFU/ml. (3) The RPMI-1640 liquid is utilized as diluent to 10-fold dilute stock solution of peptides. […] The eleventh orifice is used as living control orifice, while the twelfth one as blank control. (4) The RPMI-1640 liquid is utilized as diluent to 10-fold dilute stock solution of FCZ and ICZ. […] Ditto for other operations.

In assay [14] the test system is candida albicans. Description: microbe, parasite or virus in culture. Put shortly: (§2)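 Broth dilution in RPMI-1640 with PL-13 peptide diluted 10-fold from stock; inoculum 1-3×10^3 CFU/ml in the test. Strains activated at 60% humidity, 25 °C for aspergillus or 37 °C for candida; living and blank control wells included.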
Assay [15] deals with candida glabrata. Description: microbe, parasite or virus in culture. In outline: as §2
Assay [16] relates to aspergillus fumigatus. Description: microbe, parasite or virus in culture. Put shortly: as §2
Assay [17] has as its system aspergillus flavous. Description: microbe, parasite or virus in culture. Put shortly:
as §2

In assay [18] the test system is candida tropicalis. The experiment in a line: microbe, parasite or virus in culture. Put shortly:
as §2

In assay [19] the test system is Enterococcus faecalis. The experiment in a line: organism not typed. Conditions: read-out: MIC. Here is the method:
The experimental strains are 37 standard strains preserved in lab and clinical isolated bacteria, including drug-resistant bacteria and quality-control bacteria selecting Staphylococcus aureus ATCC29213, Enterococcus faecalis ATCC29212, Escherichia coli ATCC25922, Pseudomonas aeruginosa ATCC27853 and klebsiella pneumoniae ATCC700603.
(1) Sensitivity test is conducted with two-fold agar dilution method and Denlay multipoint inoculator. Test bacteria are cultured with nutrient broth and brain heart infusion.
(2) The drug is double diluted into different concentration with MH broth after dissolved and then placed in the plate respectively.
(4) After solidification of the culture medium in the plate, test bacteria (10^4CFU/point) are inoculated by multipoint inoculator and cultured for 18 hours at constant 35° C. Then observe the results.

For assay [20], the system named is Shigella flexneri. Description: microbe, parasite or virus in culture. Put shortly:
as §1

Assay [21] concerns Escherichia coli. Description: microbe, parasite or virus in culture. Conditions: 08-5 (ESBLs) Extended Spectyumβ-lactamase. Put shortly: as §1
Assay [22] deals with Pseudomonas aeruginosa. Description: microbe, parasite or virus in culture. Put shortly: as §1
[23] abbreviates: 08-52(MRSA) Methicillin-resistant staphylococcus aureus.
[24] abbreviates: 06-71 (VRE) Vancomycin-resistant Enterococci.
Where [25] appears, read: HH22* (AMEs) Aminoglycoside-modifying enzyme.

Converted amounts (≈) assume the structure as drawn. Read-outs that look alike come from different tables or passages of the source. Non-standard residues stand in square brackets, D forms with d. Residues, ends and D or L forms follow the SMILES beside them.

In the case of `CC(=O)N[C@H](Cc1ccccc1)C(=O)N[C@H](CCCCN)C(=O)N[C@H](CCCCN)C(=O)N[C@H](CC(C)C)C(=O)N[C@H](CCCCN)C(=O)N[C@H](CCCCN)C(=O)N[C@H](CC(C)C)C(=O)N[C@H](Cc1ccccc1)C(=O)N[C@H](CO)C(=O)N[C@H](CCCCN)C(=O)N[C@H](CC(C)C)C(=O)N[C@H](Cc1c[nH]c2ccccc12)C(=O)N[C@H](CC(N)=O)C(=O)N[C@H](Cc1c[nH]c2ccccc12)C(=O)N[C@H](CCCCN)C(N)=O` [PL-18] (Ac-[dF][dK][dK][dL][dK][dK][dL][dF][dS][dK][dL][dW][dN][dW][dK]-NH2), the MIC is 0.3 µM (≈ 0.611 µg/mL) in assay [1]; 0.7 µM (≈ 1.42 µg/mL) in assay [2]; 1.3 µM (≈ 2.65 µg/mL) in assay [3]; 0.04 µM (≈ 0.0814 µg/mL) in assay [4]; 0.04 µM (≈ 0.0814 µg/mL) in [5]; 0.04 µM (≈ 0.0814 µg/mL) in assay [6]. Moreover, the MIC in assay [7] is listed as 0.3 µM (≈ 0.611 µg/mL); in [8], 0.7 µM (≈ 1.42 µg/mL); in assay [8] (setting [23]), 2.7 µM (≈ 5.5 µg/mL); in assay [9], 0.3 µM (≈ 0.611 µg/mL); in assay [10] it was 5.3 µM (≈ 10.8 µg/mL); in [11], 1.7 µM (≈ 3.46 µg/mL). For the same compound, the MIC came to 0.04 µM (≈ 0.0814 µg/mL) in assay [12], 1.3 µM (≈ 2.65 µg/mL) in [19] (setting [24]) and 1.7 µM (≈ 3.46 µg/mL) in assay [19] (setting [25]). Besides, the Minimal inhibitory concentration in assay [13] is 4 mg/L (≈ 1.97 µM); in assay [14], 4 mg/L (≈ 1.97 µM); in [15] it was 4 mg/L (≈ 1.97 µM); in assay [16], 16 mg/L (≈ 7.86 µM); in assay [17], above 64 mg/L; in assay [18], 2 mg/L (≈ 0.983 µM).

Ac-FKKLKKLFSKLWNWK-NH2 [PL-13]: the MIC in assay [1] was found to be 1.3 µM; in assay [3], 0.7 µM; in assay [4] it was 1.3 µM; in assay [5], 0.3 µM; in assay [20] it was 0.7 µM; in [6], 2.7 µM. For the same compound, the MIC amounted to 1.3 µM in assay [7]; 0.7 µM in assay [8]; 2.7 µM in assay [8] (08-49(MSSA) Meticillin susceptible staphylococcus aureus); 2.7 µM in [8] (setting [23]); 0.7 µM in assay [21]; 1.3 µM in assay [9]. The MIC in [10] is listed as 0.3 µM; in assay [22] it was 1.3 µM; in [11], “.3 µM”; in assay [12], 0.7 µM; in assay [19] (setting [24]), 1.7 µM; in [19] (setting [25]), 1.7 µM. The MIC was 5.3 µM in [19] and 1.3 µM in [19] (strain 06-7 (listed under Enterococcus faecalis)). The figures for the Minimal inhibitory concentration in assay [14], in assay [16] and in [17] were 8 mg/L, 32 mg/L and above 64 mg/L, respectively.
